Tests used:
[1] = cited from earlier work
[2] = test system: gastric H^+/K^+-ATPase; set-up: method as in PMID 31437865; settings: from 50 mg to 400 mg; cited from earlier work
[3] = target: T1, CYP1A2 (Homo sapiens, UniProt P05177); experiment: Intrinsic clearance in human liver microsomes with CYP inhibitors; assay type: in vitro ADME
T1 construct: from tissue; host or cells: human liver microsomes
T1 sequence (P05177 1-516): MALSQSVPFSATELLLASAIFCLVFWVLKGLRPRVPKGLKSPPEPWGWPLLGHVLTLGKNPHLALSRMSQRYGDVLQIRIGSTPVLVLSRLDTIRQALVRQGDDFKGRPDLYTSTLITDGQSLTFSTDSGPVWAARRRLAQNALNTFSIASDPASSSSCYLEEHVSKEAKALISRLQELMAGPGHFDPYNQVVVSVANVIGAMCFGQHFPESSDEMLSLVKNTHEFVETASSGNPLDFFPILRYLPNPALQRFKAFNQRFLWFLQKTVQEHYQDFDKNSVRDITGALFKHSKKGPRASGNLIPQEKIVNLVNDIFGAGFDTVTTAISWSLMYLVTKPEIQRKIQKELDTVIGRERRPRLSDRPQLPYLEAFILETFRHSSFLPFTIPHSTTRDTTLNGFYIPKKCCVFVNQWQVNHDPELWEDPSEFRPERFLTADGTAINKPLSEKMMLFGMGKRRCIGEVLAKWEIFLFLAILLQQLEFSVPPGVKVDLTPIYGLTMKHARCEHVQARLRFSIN
Method: (§1) The elimination of the PBPK model consisted of enzyme kinetic and renal clearance (Table 1). Intrinsic clearances (CLint) of tegoprazan by various CYPs were determined by an in vitro study that measured the fraction of CLint inhibited by adding the inhibitors of CYP1A2, CYP2C9, CYP2C19, CYP2D6, and CYP3A to human liver microsomes (in-house data). Based on the in vitro data, an in vitro to in vivo extrapolation (IVIVE) approach was used to estimate the in vivo CLint by each CYP enzyme. Renal clearance as an additional clearance was used from the result of a single-oral-dose study of tegoprazan 100 mg.

[4] = target: T2, CYP2C9 (Homo sapiens, UniProt P11712); experiment: as above; assay type: in vitro ADME
T2 construct: from tissue; host or cells: human liver microsomes
Method: as §1

[5] = target: T3, CYP2D6 (Homo sapiens, UniProt P10635); experiment: as above; assay type: in vitro ADME
T3 construct: from tissue; host or cells: human liver microsomes
Method: as §1

[6] = target: T4, CYP2C19 (Homo sapiens, UniProt P33261); experiment: as above; assay type: in vitro ADME
T4 construct: from tissue; host or cells: human liver microsomes
Method: as §1

[7] = Blood:plasma partition ratio and fraction unbound in plasma, experimental data; assay type: in vitro ADME
[8] = test system: CYP3A4; experiment: CYP3A4 intrinsic clearance by parameter estimation against clinical data; set-up: species or system human; settings: estimated from clinical data, single dose 50 mg, instead of in vitro data
Method: as §1
If the predicted PK profiles and parameters were not close enough to the observed values, the PBPK model was refined by the parameter estimation approach, in which a parameter was optimized with respect to the clinical data. Parameter estimation was conducted using the genetic algorithm method and weighted-least squares as the objective function. Four parameters were simultaneously estimated in the final step of model refinement using clinical data of single-dose PK study of tegoprazan 50 mg (Table 1). The values of Q and VSAC were estimated to reflect the biphasic distribution of tegoprazan, and the value of Kp scalar was estimated because it affected the overall PK profile, especially distribution and clearance. […]

T2 sequence (P11712 whole entry): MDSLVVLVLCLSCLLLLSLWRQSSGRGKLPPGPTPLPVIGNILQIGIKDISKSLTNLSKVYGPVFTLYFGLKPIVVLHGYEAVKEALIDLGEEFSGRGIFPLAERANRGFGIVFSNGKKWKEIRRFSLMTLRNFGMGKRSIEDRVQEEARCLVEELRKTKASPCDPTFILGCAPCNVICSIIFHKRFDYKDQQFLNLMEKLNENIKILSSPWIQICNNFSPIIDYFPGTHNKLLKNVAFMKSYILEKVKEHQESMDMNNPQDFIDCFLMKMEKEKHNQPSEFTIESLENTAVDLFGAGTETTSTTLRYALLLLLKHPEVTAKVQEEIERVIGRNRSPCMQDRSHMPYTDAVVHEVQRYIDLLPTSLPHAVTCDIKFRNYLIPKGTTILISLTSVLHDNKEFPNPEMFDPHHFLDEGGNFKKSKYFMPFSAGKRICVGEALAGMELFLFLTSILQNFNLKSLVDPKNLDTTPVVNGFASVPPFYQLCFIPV
T3 sequence (P10635 whole entry): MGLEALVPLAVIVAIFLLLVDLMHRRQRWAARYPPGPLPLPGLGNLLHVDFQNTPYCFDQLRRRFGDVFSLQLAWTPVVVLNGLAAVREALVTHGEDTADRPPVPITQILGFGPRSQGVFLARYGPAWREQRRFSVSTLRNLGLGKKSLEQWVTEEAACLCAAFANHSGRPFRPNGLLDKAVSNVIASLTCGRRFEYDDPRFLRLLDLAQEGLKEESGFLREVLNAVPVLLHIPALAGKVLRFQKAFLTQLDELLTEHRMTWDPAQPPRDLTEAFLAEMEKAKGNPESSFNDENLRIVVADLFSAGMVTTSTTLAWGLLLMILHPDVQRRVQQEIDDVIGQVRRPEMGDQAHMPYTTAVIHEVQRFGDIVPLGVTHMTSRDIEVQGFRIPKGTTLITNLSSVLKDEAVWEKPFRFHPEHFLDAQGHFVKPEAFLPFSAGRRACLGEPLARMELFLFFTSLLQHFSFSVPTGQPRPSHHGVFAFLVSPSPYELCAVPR
T4 sequence (P33261 whole entry): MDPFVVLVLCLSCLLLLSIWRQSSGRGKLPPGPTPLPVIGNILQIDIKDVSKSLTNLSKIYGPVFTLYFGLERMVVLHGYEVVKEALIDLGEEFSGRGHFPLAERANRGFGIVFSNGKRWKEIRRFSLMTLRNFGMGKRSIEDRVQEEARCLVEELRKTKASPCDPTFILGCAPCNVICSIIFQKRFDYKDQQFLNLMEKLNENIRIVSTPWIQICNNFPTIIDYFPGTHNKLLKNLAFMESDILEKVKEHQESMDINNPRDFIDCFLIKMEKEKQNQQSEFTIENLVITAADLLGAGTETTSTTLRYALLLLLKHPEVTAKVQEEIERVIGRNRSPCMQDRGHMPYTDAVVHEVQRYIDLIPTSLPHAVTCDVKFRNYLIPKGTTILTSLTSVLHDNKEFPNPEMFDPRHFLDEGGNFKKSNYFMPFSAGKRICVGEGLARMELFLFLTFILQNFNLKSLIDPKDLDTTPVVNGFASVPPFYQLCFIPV

SMILES: Cc1nc2cc(C(=O)N(C)C)cc(O[C@H]3CCOc4cc(F)cc(F)c43)c2[nH]1 [tegoprazan]
- apparent clearance [1]: approximately 17.6 L/h
- mean half-life [1]: 3.7 to 6.2 h
- volume of distribution [1]: ~107.9 L
- safety and tolerability ([1]; healthy adults, up to 400 mg single dose and 200 mg multiple doses): safe and tolerable
- increase of systemic exposure with dose ([1]; phase 1 clinical study, healthy adults): dose proportional
- Cmax when administered with food ([1]; previous studies): decreased
- time to reach Cmax when administered with food ([1]; previous studies): delayed
- magnitude of acid suppression [2]: increases in a dose-dependent manner
- CYP1A2 CLint [3]: 2.5 μL/min/mg of protein
- CYP2C9 CLint [4]: 2.6 μL/min/mg of protein
- CYP2D6 CLint [5]: 2 μL/min/mg of protein
- CYP2C19 CLint [6]: 3.6 μL/min/mg of protein
- blood plasma ratio ([7]; blood and plasma, read-out: B/P (blood:plasma partition ratio)): 0.868
- fraction unbound ([7]; plasma, read-out: fu (fraction unbound in plasma)): 0.124
- CYP3A4 CLint [8]: 30.34 μL/min/mg of protein
